The star is where a group is joined. Decanoyl = CCCCCCCCCC(=O)*; CH2Cl = ClC*
Assays:
[1] = system: proteolytic processing of VEGF-C; experiment: Processing of VEGF-C secreted by 293EBNA cells expressing VEGF-C-FULL-N-Myc (immunoprecipitation/Western blot); format: cell-based, human; settings: 0, 1, 10, 50 or 100 μM, 18 hours, Western blot
Experimental: 293EBNA cells stably transfected with an expression construct encoding VEGF-C-FULL-N-Myc (full-length VEGF-C tagged with Myc at the N-terminus) or VEGF-D-FULL-N-FLAG (full-length VEGF-D tagged with FLAG at the N-terminus) secrete fully and partially processed forms of VEGF-C or VEGF-D into the culture medium (Joukov et al., EMBO J. 16:3898-3911 1997; Stacker et al., J. Biol. Chem. 274: 32127-32136, 1999). These cells were grown overnight in 24-well plates, seeded with 8×10^4 cells per well. At the time when cultures were initiated in these plates, growth medium was supplemented with Dec-RVKR-CMK (Calbiochem) (dissolved in methanol) to a final concentration of 0, 1, 10, 50 or 100 μM. Solvent control cultures were also established, in which the medium was supplemented with methanol at concentrations equal to those present in the cultures treated with inhibitor. […]
VEGF-C species were immunoprecipitated from conditioned medium by addition of anti-VEGF-C antibody that binds the VHD and C-terminal propeptide (R&D Systems). […] The precipitated VEGF-C and VEGF-D species were then analysed by Western blot using biotinylated antibodies against the VHD and C terminus of VEGF-C, or the VHD of VEGF-D (R&D Systems) and streptavidin-horse radish peroxidase conjugate (Zymed) (FIGS. 1 and 2). […]

[2] = system: VEGF-D propeptide processing; experiment: VEGF-D processing by Balbc/3T3 cells that naturally produce VEGF-D; format: cell-based; settings: 100 μM
Source text: Finally, the effect of dec-RVKR-CMK on VEGF-D processing by Balbc/3T3 cells that naturally produce this growth factor (i.e., in cells that had not been transfected so as to express VEGF-D) was examined.

[3] = system: BaF3 cells expressing the VEGFR-2/EpoR chimeric receptor; experiment: BaF3 bioassay, VEGFR-2/EpoR chimeric receptor, [3H]thymidine incorporation; format: cell-based; settings: paper example in present tense
Source text: (§1) In order to test if a furin or broad-range PC inhibitor can block the biological effects of VEGF-D, mammalian cells are employed that proteolytically process VEGF-D, such as 293EBNA or Capan-1 pancreatic carcinoma cells. Derivatives of these cells harboring an expression construct for full-length VEGF-D are transfected with the shRNA construct for furin (as described here) or treated with a broad-range PC inhibitor such as decanoyl-Arg-Val-Lys-Arg-chloromethylketone (see, PCT WO 2005/112971 A1, the disclosure of which is incorporated herein by reference in its entirety). The inhibition of VEGF-D processing by these agents is confirmed by immunoprecipitation/Western blotting of the conditioned cell culture media using antibody that binds the VHD of VEGF-D. The conditioned cell culture media from cells treated with the inhibitors (and from cells in which these agents are omitted, i.e. “mock” treatments) are used for incubations with BaF3 pre-B cells expressing chimeric receptors consisting of the extracellular domains of VEGFR-2 or VEGFR-3 and the transmembrane and cytoplasmic domains of the erythropoietin receptor (EpoR) (Stacker et al., J. Biol. Chem., 274:34884-34892, 1999; Achen et al., Eur. J. Biochem., 267:2505-2515, 2000). […] The proliferation of the cells in response to the conditioned media containing VEGF-D is monitored by incorporation of [3H]thymidine into DNA. […]

[4] = system: BaF3 cells expressing the VEGFR-3/EpoR chimeric receptor; experiment: BaF3 bioassay, VEGFR-3/EpoR chimeric receptor, [3H]thymidine incorporation; format: cell-based; settings: paper example in present tense
Source text: as §1

Decanoyl-Arg-Val-Lys-Arg-chloromethylketone (Decanoyl-RVKR-CH2Cl) [Dec-RVKR-CMK]
abundance of fully and partially processed forms of VEGF-C [1]: dramatically reduced in abundance in a dose-dependent manner
VEGF-D propeptide processing [2]: almost completely blocked
proliferation of BaF3 VEGFR-2/EpoR cells induced by conditioned media of treated VEGF-D-expressing cells [3]: do not induce significant proliferation
proliferation of BaF3 VEGFR-3/EpoR cells induced by conditioned media of treated VEGF-D-expressing cells [4]: do not induce significant proliferation
